Legend:
[1] = In vitro transdermal flux of cannabinoids from monolithic patches, Franz Diffusion Cell method; assay type: in vitro ADME, human; details: for stimulation of cumulative CBD flux versus no dihydromyricetin: 15% CBD patch
Source text: Transdermal flux of cannabinoids can be measured In Vitro through human cadaver epidermis using Franz Diffusion Cell Method. Samples of 300 microliters can be taken of the receiving solution and analyzed by HPLC for amount ofcannabinoid substance that passed through the epidermis.
Flux is preferably measured using human cadaver skin with a Franz Diffusion Cell (see, Kristof (2017) Feasibility of transdermal delivery of Cyclosporine A using plasma discharges. Biointerphases. 12:02B402). Flux can be measured where the temperature of the Franz Diffusion Cell (and solutions inside the Franz Diffusion Cell) are held constant at about 17 degrees C., about 20 degrees C., about 23 degrees C. (“room temperature”), about 26 degrees C., about 30 degrees C., about 33 degrees C., about 37 degrees C. (mammalian body temperature), about 40 degrees C., and so on.
For each figure, the number of hours that flux was allowed to occur was twentyfour hours (24 hours). The data for each figure used a monolithic patch. Composition of the patch: PIB adhesive with 15% of CBD or 8% THC. Patch construction was adhesive layer attached to a backing polyethylene foam film. No additional overlays were used. Experiments were done using Franz Diffusion Cells using human cadaver skin.

[2] = patch measuring 20 cm^2, PIB adhesive and 10% CBD; cited from earlier work

C=C(C)[C@@H]1CCC(C)=C[C@H]1c1c(O)cc(CCCCC)cc1O [CBD, cannabidiol]
control net flux of CBD ([1]; control monolithic patch without any dihydromyricetin, 15% CBD, over a period of 24 hours): about 155 micrograms CBD per square centimeter of skin
cumulative transdermal flux of CBD ([1]; monolithic PIB patch, 15% CBD, 0% dihydromyricetin, 24 hours, FIG. 2 first bar): about 155 micrograms/cm^2
cumulative transdermal flux of CBD ([1]; monolithic PIB patch, 15% CBD, 3% dihydromyricetin, 24 hours, FIG. 2 second bar): about 195 micrograms/cm^2
cumulative transdermal flux of CBD ([1]; monolithic PIB patch, 15% CBD, 5% dihydromyricetin, 24 hours, FIG. 2 third bar): about 230 micrograms/cm^2
net flux of CBD ([1]; monolithic PIB patch, 15% CBD, with dihydromyricetin, over a period of 24 hours): at least 195 micrograms CBD per square centimeter of skin
daily systemic dose of CBD deliverable [2]: about 5 mg

CCCCCc1cc(O)c2c(c1)OC(C)(C)[C@@H]1CCC(C)=C[C@@H]21 [THC, tetrahydrocannabinol]
control net flux of THC ([1]; control monolithic patch without any dihydromyricetin, 8% THC, over a period of 24 hours): about 90 micrograms THC per square centimeter of skin
cumulative transdermal flux of THC ([1]; monolithic PIB patch, 8% THC, 0.5% dihydromyricetin, 24 hours, FIG. 1 third bar): about 145 micrograms/cm^2
cumulative transdermal flux of THC ([1]; monolithic PIB patch, 8% THC, 3% oleic acid, 24 hours, FIG. 1 second bar): about 110 micrograms/cm^2
cumulative transdermal flux of THC ([1]; monolithic PIB patch, 8% THC, no enhancer, 24 hours, FIG. 1 first bar): about 90 micrograms/cm^2
net flux of THC ([1]; monolithic PIB patch, 8% THC, with dihydromyricetin, over a period of 24 hours): at least 145 micrograms THC per square centimeter of skin

O=C1c2c(O)cc(O)cc2O[C@H](c2cc(O)c(O)c(O)c2)[C@H]1O [dihydromyricetin]
stimulation of cumulative THC flux versus no dihydromyricetin ([1]; 8% THC patch, 5% dihydromyricetin (third histogram bar), 24 hours): about 61%
stimulation of cumulative CBD flux versus no dihydromyricetin ([1]; 3% dihydromyricetin, 24 hours): about 25%
stimulation of cumulative CBD flux versus no dihydromyricetin ([1]; 5% dihydromyricetin, 24 hours): about 48%
increase of CBD flux through skin (factor) ([1]; dermal patch formulation that includes CBD, human cadaver skin): three-fold

From US10821084B2, “Dihydromyricetin compositions” (REMY BIOSCIENCES, INC., priority 2018, dated 2020)
